Test results published in PubChem BioAssay AID1993 (NMMLSC, 2009).
Activity calls are given as the source filed them.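 Rule for the calls: active = fluorescence area over time at least a quarter above or below the solvent control area (some results past the limit were not filed as active); inactive = the rest.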

tested on: U937 FPR-DeltaST, VLA-4 LDV-FITC binding, flow cytometry; test: fMLF receptor-driven LDV-FITC binding on U937 cells – cell-based, U937 FPR-DeltaST, flow cytometry, RGS protein inhibitor project (AID 1993); conditions: at 10 µM; active compounds read high

| SMILES | AUC |
| --- | --- |
| Cc1cccc(N2CCN(C(=O)Cn3sc4nc(C)cc(C)c4c3=O)CC2C)c1 (configuration not stated) | 25500 |
| CCN(CC)S(=O)(=O)c1cccc(C(=O)N/N=C/c2ccc(O)c(O)c2O)c1 | 26500 |
| COc1ccc(OC)c(CCNC(=O)Cn2sc3nc(C)cc(C)c3c2=O)c1 | 26600 |
| Cc1cc(C)c2c(=O)n(CC(=O)Nc3cccc(F)c3)sc2n1 | 25000 (inactive) |
| O=C(NCCCN1CCOCC1)c1sc2cc([N+](=O)[O-])ccc2c1Cl | 27100 |
| CCOC(=O)C1CCCN(C(=O)Cn2sc3nc(C)cc(C)c3c2=O)C1 (configuration not stated) | 27900 |
| O=c1c2ccccc2sn1-c1cc(S(=O)(=O)N2CCOCC2)ccc1N1CCCC1 | 19600 (inactive) |
| Cc1cc(C)c2c(=O)n(CC(=O)Nc3ccc(Cl)cc3)sc2n1 | 22800 (inactive) |
| Nc1c(C(=O)NCC2CCCO2)sc2nc3c(c(-c4ccco4)c12)CC/C3=C\c1ccco1 (configuration not stated) | 455 (inactive) |
| O=C1C(Cl)=C(N2CCCCC2)C(=O)C(Cl)=C1c1cnc(N2CCCCC2)s1 | 2540 (inactive) |
| CC(NC(=O)c1sc2cc([N+](=O)[O-])ccc2c1Cl)C(C)(C)C (configuration not stated) | 29100 |
| Cc1ccc(NC(=O)Cn2sc3nc(C)cc(C)c3c2=O)c(Cl)c1 | 23500 (inactive) |
| O=c1c2ccccc2sn1-c1ccc(S(=O)(=O)N2CCCC2)cc1 | 19400 (inactive) |
| O=c1c2ccccc2sn1-c1ccccc1 | 18300 (inactive) |
| NS(=O)(=O)c1ccc(N/N=C/c2ccc(O)c(O)c2O)c([N+](=O)[O-])c1 | 20500 (inactive) |
| CCC(=O)NC1=C(Cl)C(=O)C(NC(=O)CC)=C(Cl)C1=O | 11600 (inactive) |
| Cc1[nH]n(-c2ccccc2)c(=S)c1C=Nc1cccc([N+](=O)[O-])c1 | 26500 |
